Test results: the NIST ThermoML archive (doi:10.1021/je700260f)
± gives the expanded uncertainty stated by the source.

Conditions: Liquid, Vibrating tube method

FC(C(F)(F)F)C(F)(F)F [1,1,1,2,3,3,3-heptafluoropropane]
Conditions	mass density [kg/m3]
293.14 K, 33440 kPa	1551.5 ± 1.8
293.14 K, 33474 kPa	1551.5 ± 1.8
293.14 K, 33518 kPa	1551.7 ± 1.8
293.14 K, 33554 kPa	1551.8 ± 1.8
293.14 K, 33589 kPa	1552 ± 1.8
293.15 K, 458 kPa	1409.2 ± 1.5
293.15 K, 459 kPa	1409.3 ± 1.5
293.15 K, 461 kPa	1409.2 ± 1.5
293.15 K, 466 kPa	1409.3 ± 1.5
293.15 K, 478 kPa	1409.2 ± 1.5
293.15 K, 498 kPa	1409.3 ± 1.5
293.15 K, 525 kPa	1409.6 ± 1.5
293.15 K, 545 kPa	1409.8 ± 1.5
293.15 K, 569 kPa	1409.9 ± 1.5
293.15 K, 591 kPa	1410.2 ± 1.5
293.15 K, 616 kPa	1410.3 ± 1.5
293.15 K, 647 kPa	1410.5 ± 1.5
293.15 K, 682 kPa	1410.9 ± 1.5
293.15 K, 712 kPa	1411 ± 1.5
293.15 K, 757 kPa	1411.3 ± 1.5
293.15 K, 1646 kPa	1417.7 ± 1.5
293.15 K, 1682 kPa	1417.8 ± 1.5
293.15 K, 1714 kPa	1418.1 ± 1.5
293.15 K, 1855 kPa	1419.1 ± 1.5
293.15 K, 2431 kPa	1422.8 ± 1.5
293.15 K, 2456 kPa	1423.1 ± 1.5
293.15 K, 2481 kPa	1423.1 ± 1.5
293.15 K, 2506 kPa	1423.3 ± 1.5
293.15 K, 2536 kPa	1423.7 ± 1.5
293.15 K, 2566 kPa	1423.7 ± 1.5
293.15 K, 2590 kPa	1424 ± 1.5
293.15 K, 2619 kPa	1424.2 ± 1.5
293.15 K, 2653 kPa	1424.3 ± 1.5
293.15 K, 3787 kPa	1431.6 ± 1.5
293.15 K, 3853 kPa	1432 ± 1.5
293.15 K, 3906 kPa	1432.2 ± 1.5
293.15 K, 3939 kPa	1432.5 ± 1.5
293.15 K, 3976 kPa	1432.7 ± 1.5
293.15 K, 4019 kPa	1432.9 ± 1.5
293.15 K, 4053 kPa	1433.1 ± 1.5
293.15 K, 4077 kPa	1433.4 ± 1.5
293.15 K, 4124 kPa	1433.7 ± 1.5
293.15 K, 4157 kPa	1434 ± 1.5
293.15 K, 4195 kPa	1434 ± 1.5
293.15 K, 4219 kPa	1434.2 ± 1.5
293.15 K, 4259 kPa	1434.4 ± 1.5
293.15 K, 4286 kPa	1434.6 ± 1.5
293.15 K, 4322 kPa	1434.7 ± 1.5
293.15 K, 4367 kPa	1435 ± 1.5
293.15 K, 4394 kPa	1435.3 ± 1.5
293.15 K, 4425 kPa	1435.6 ± 1.5
293.15 K, 4452 kPa	1435.7 ± 1.5
293.15 K, 4488 kPa	1435.9 ± 1.5
293.15 K, 4515 kPa	1435.9 ± 1.5
293.15 K, 4556 kPa	1436.2 ± 1.5
293.15 K, 4587 kPa	1436.4 ± 1.5
293.15 K, 4614 kPa	1436.6 ± 1.5
293.15 K, 4655 kPa	1436.8 ± 1.5
293.15 K, 4687 kPa	1437 ± 1.5
293.15 K, 4727 kPa	1437.2 ± 1.5
293.15 K, 4754 kPa	1437.4 ± 1.5
293.15 K, 4791 kPa	1437.7 ± 1.5
293.15 K, 4815 kPa	1437.8 ± 1.5
293.15 K, 4846 kPa	1438.1 ± 1.5
293.15 K, 5062 kPa	1439.2 ± 1.5
293.15 K, 5095 kPa	1439.5 ± 1.5
293.15 K, 5137 kPa	1439.6 ± 1.5
293.15 K, 5170 kPa	1440 ± 1.5
293.15 K, 5198 kPa	1440 ± 1.5
293.15 K, 5231 kPa	1440.3 ± 1.5
293.15 K, 5259 kPa	1440.4 ± 1.5
293.15 K, 5292 kPa	1440.6 ± 1.5
293.15 K, 5321 kPa	1440.8 ± 1.5
293.15 K, 5364 kPa	1440.9 ± 1.5
293.15 K, 5392 kPa	1441.2 ± 1.5
293.15 K, 5435 kPa	1441.5 ± 1.5
293.15 K, 5472 kPa	1441.7 ± 1.5
293.15 K, 5500 kPa	1441.9 ± 1.5
293.15 K, 5537 kPa	1442.1 ± 1.5
293.15 K, 5566 kPa	1442.2 ± 1.5
293.15 K, 5610 kPa	1442.3 ± 1.5
293.15 K, 5639 kPa	1442.6 ± 1.5
293.15 K, 5678 kPa	1442.8 ± 1.5
293.15 K, 5720 kPa	1443 ± 1.5
293.15 K, 5755 kPa	1443.2 ± 1.5
293.15 K, 5784 kPa	1443.4 ± 1.5
293.15 K, 5818 kPa	1443.6 ± 1.5
293.15 K, 5848 kPa	1443.8 ± 1.5
293.15 K, 5896 kPa	1444 ± 1.5
293.15 K, 5921 kPa	1444.1 ± 1.5
293.15 K, 5955 kPa	1444.4 ± 1.5
293.15 K, 5984 kPa	1444.6 ± 1.5
293.15 K, 6018 kPa	1444.7 ± 1.5
293.15 K, 6043 kPa	1444.8 ± 1.5
293.15 K, 6073 kPa	1445 ± 1.5
293.15 K, 6113 kPa	1445.2 ± 1.5
293.15 K, 6138 kPa	1445.5 ± 1.5
293.15 K, 6174 kPa	1445.6 ± 1.5
293.15 K, 6205 kPa	1445.7 ± 1.5
293.15 K, 6235 kPa	1445.9 ± 1.5
293.15 K, 6260 kPa	1446.1 ± 1.5
293.15 K, 6295 kPa	1446.2 ± 1.5
293.15 K, 6323 kPa	1446.4 ± 1.5
293.15 K, 6351 kPa	1446.6 ± 1.5
293.15 K, 6375 kPa	1446.8 ± 1.5
293.15 K, 6408 kPa	1446.9 ± 1.5
293.15 K, 6437 kPa	1447 ± 1.5
293.15 K, 6477 kPa	1447.3 ± 1.5
293.15 K, 6508 kPa	1447.5 ± 1.5
293.15 K, 6534 kPa	1447.6 ± 1.5
293.15 K, 6566 kPa	1447.6 ± 1.5
293.15 K, 6593 kPa	1447.9 ± 1.5
293.15 K, 6624 kPa	1448.1 ± 1.5
293.15 K, 6655 kPa	1448.4 ± 1.5
293.15 K, 6682 kPa	1448.4 ± 1.5
293.15 K, 6721 kPa	1448.5 ± 1.5
293.15 K, 6752 kPa	1448.8 ± 1.5
293.15 K, 6792 kPa	1449 ± 1.5
293.15 K, 6823 kPa	1449.3 ± 1.5
293.15 K, 6862 kPa	1449.5 ± 1.5
293.15 K, 6885 kPa	1449.5 ± 1.5
293.15 K, 6918 kPa	1449.8 ± 1.5
293.15 K, 6944 kPa	1449.9 ± 1.5
293.15 K, 6979 kPa	1450 ± 1.5
293.15 K, 7002 kPa	1450.1 ± 1.5
293.15 K, 7034 kPa	1450.4 ± 1.5
293.15 K, 7074 kPa	1450.7 ± 1.5
293.15 K, 7106 kPa	1450.7 ± 1.5
293.15 K, 7134 kPa	1450.8 ± 1.5
293.15 K, 7160 kPa	1450.9 ± 1.5
293.15 K, 7196 kPa	1451.2 ± 1.5
293.15 K, 7223 kPa	1451.4 ± 1.5
293.15 K, 7255 kPa	1451.5 ± 1.5
293.15 K, 7292 kPa	1451.6 ± 1.5
293.15 K, 7319 kPa	1451.9 ± 1.5
293.15 K, 7352 kPa	1452 ± 1.5
293.15 K, 7380 kPa	1452.1 ± 1.5
293.15 K, 7413 kPa	1452.4 ± 1.5
293.15 K, 7445 kPa	1452.6 ± 1.5
293.15 K, 7478 kPa	1452.7 ± 1.5
293.15 K, 7506 kPa	1452.9 ± 1.5
293.15 K, 7543 kPa	1453.2 ± 1.5
293.15 K, 7575 kPa	1453.2 ± 1.5
293.15 K, 7829 kPa	1454.6 ± 1.5
293.15 K, 8576 kPa	1458.4 ± 1.5
293.15 K, 8615 kPa	1458.6 ± 1.5
293.15 K, 8640 kPa	1458.7 ± 1.5
293.15 K, 8669 kPa	1458.9 ± 1.5
293.15 K, 8716 kPa	1459.1 ± 1.5
293.15 K, 8745 kPa	1459.3 ± 1.5
293.15 K, 8774 kPa	1459.5 ± 1.5
293.15 K, 8814 kPa	1459.7 ± 1.5
293.15 K, 8862 kPa	1459.9 ± 1.5
293.15 K, 8888 kPa	1460 ± 1.5
293.15 K, 8923 kPa	1460.2 ± 1.5
293.15 K, 8958 kPa	1460.4 ± 1.5
293.15 K, 8988 kPa	1460.5 ± 1.5
293.15 K, 9023 kPa	1460.7 ± 1.5
293.15 K, 9057 kPa	1461 ± 1.5
293.15 K, 9081 kPa	1461.1 ± 1.5
293.15 K, 9121 kPa	1461.1 ± 1.5
293.15 K, 9156 kPa	1461.3 ± 1.5
293.15 K, 9182 kPa	1461.5 ± 1.5
293.15 K, 9258 kPa	1461.9 ± 1.5
293.15 K, 9989 kPa	1465.5 ± 1.6
293.15 K, 10025 kPa	1465.7 ± 1.6
293.15 K, 10056 kPa	1465.8 ± 1.6
293.15 K, 10087 kPa	1465.9 ± 1.6
293.15 K, 10128 kPa	1466.3 ± 1.6
293.15 K, 10154 kPa	1466.4 ± 1.6
293.15 K, 10195 kPa	1466.7 ± 1.6
293.15 K, 10240 kPa	1466.8 ± 1.6
293.15 K, 10275 kPa	1466.7 ± 1.6
293.15 K, 10316 kPa	1467.1 ± 1.6
293.15 K, 10555 kPa	1468.1 ± 1.6
293.15 K, 10597 kPa	1468.5 ± 1.6
293.15 K, 10638 kPa	1468.7 ± 1.6
293.15 K, 10669 kPa	1468.7 ± 1.6
293.15 K, 10706 kPa	1469 ± 1.6
293.15 K, 10738 kPa	1469.2 ± 1.6
293.15 K, 10775 kPa	1469.4 ± 1.6
293.15 K, 10808 kPa	1469.4 ± 1.6
293.15 K, 10851 kPa	1469.6 ± 1.6
293.15 K, 10882 kPa	1469.7 ± 1.6
293.15 K, 10920 kPa	1470 ± 1.6
293.15 K, 10958 kPa	1470.2 ± 1.6
293.15 K, 11044 kPa	1470.6 ± 1.6
293.15 K, 11082 kPa	1470.6 ± 1.6
293.15 K, 11132 kPa	1470.9 ± 1.6
293.15 K, 11159 kPa	1471.4 ± 1.6
293.15 K, 11209 kPa	1471.3 ± 1.6
293.15 K, 11254 kPa	1471.6 ± 1.6
293.15 K, 11292 kPa	1471.8 ± 1.6
293.15 K, 11324 kPa	1471.9 ± 1.6
293.15 K, 11368 kPa	1472.1 ± 1.6
293.15 K, 11401 kPa	1472.3 ± 1.6
293.15 K, 11439 kPa	1472.4 ± 1.6
293.15 K, 11473 kPa	1472.6 ± 1.6
293.15 K, 11518 kPa	1472.8 ± 1.6
293.15 K, 11556 kPa	1472.9 ± 1.6
293.15 K, 11601 kPa	1473.2 ± 1.6
293.15 K, 11629 kPa	1473.3 ± 1.6
293.15 K, 11668 kPa	1473.4 ± 1.6
293.15 K, 11713 kPa	1473.7 ± 1.6
293.15 K, 11752 kPa	1473.8 ± 1.6
